From patent publication US20250120932A1, “PHARMACEUTICAL COMPOSITION” (NEUROPRO THERAPEUTICS, INC., priority 2021, published 2025)
Each block holds one molecule with its values, some of them ahead of it.

How the values were obtained:
Caco-2 cells = assay: in vitro
Experimental: (§1) Caco-2 cells purchased from ATCC were seeded onto […] (PET) in 96-well Corning Insert plates at 1×10^5 cells/cm^2, and refreshed medium every 4˜5 days until to the 21st to 28th day for confluent cell monolayer formation.
(§2) The transport buffer in the study was HBSS with 10.0 mM HEPES at pH 7.40±0.05. Test compound was tested at 2.00 μM bi-directionally in duplicate. Digoxin was tested at 10.0 μM bi-directionally in duplicate, while nadolol and metoprolol were tested at 2.00 μM in A to B direction in duplicate. Final DMSO concentration was adjusted to less than 1%. The plate was incubated for 2 hours in CO2 incubator at 37±1° C., with 5% CO2 at saturated humidity without shaking. And all samples after mixed with acetonitrile containing internal standard were centrifuged at 3200×g for 10 min. For nadolol and metoprolol, 200 μL supernatant solution was diluted with 600 μL ultra-pure water for LC-MS/MS analysis. For digoxin and test compounds, 200 μL supernatant solution was diluted with 200 μL ultra-pure water for LC-MS/MS analysis. Concentrations of test and control compounds in starting solution, donor solution, and receiver solution were quantified by LC-MS/MS methodologies, using peak area ratio of analyte/internal standard. After transport assay, lucifer yellow rejection assay was applied to determine the Caco-2 cell monolayer integrity.
(§3) The apparent permeability coefficient Papp (cm/s) was calculated using the equation: […]
(§4) Where dCp/dt is the cumulative concentration of compound in the receiver chamber as a function of time (μM/s); Vr is the solution volume in the receiver chamber (0.075 mL on the apical side, 0.25 mL on the basolateral side); A is the surface area for the transport, i.e. 0.0804 cm^2 for the area of the monolayer; Co is the initial concentration in the donor chamber (μM). The efflux ratio was calculated using the equation: […]
(§5) Percent recovery was calculated using the equation: […]
(§6) Where Vd is the volume in the donor chambers (0.075 mL on the apical side, 0.25 mL on the basolateral side); Ca and Cr are the final concentrations of transport compound in donor and receiver chambers, respectively.

in vitro = details: human; for recovery at 2 h: Caco-2, pH 7.4, Mean % Solution Recovery A to B
Experimental: as §1, §2, §3, §4, §5, §6

[1] = LogP (octanol:water partition coefficient)
Text: Crucial to the efficacy of any treatment by a pharmaceutical composition is the overall systemic bioavailability of the pharmaceutical composition used for said treatment. […] LogP is one measure of lipophyilicity, and is the octal:water partition coefficient expressed as a log ratio of molecule in octanol relative to water after mixing.

[2] = Oral SEDDS-formulated versus unformulated Bumetanide amides in rats, blood concentration; type: in vivo; details: male rats
Experimental: SEDDS-formulated and unformulated Bumetanide Morpholinoamide and Bumetanide Diethylamide were orally administered to rats. The experiment was conducted as described previously in regards to Bumetanide Dibenzylamide. Three male and three female rats at each time point for each of the SEDDS and non-SEDDS treatments were used. […] As this appeared to be experimental error, all female rats were removed from the data.

[3] = Oral delivery of unformulated Bumetanide Dibenzylamide in Beagle dogs, pharmacokinetics and bioavailability; type: in vivo; details: oral non-formulated Bumetanide Dibenzylamide
[4] = Pharmacokinetic study in cynomolgus monkeys after oral (nasogastric) gavage, sublingual and intravenous administration; type: in vivo; details: monkeys, after SL dosing of Bumetanide Dibenzylamide
Experimental: A pharmacokinetic study was done in cynomolgus monkeys following single oral (nasogastric) gavage, sublingual, and intravenous administration. […] Calibration curves, blanks, and analytical QCs were prepared in monkey plasma (K2EDTA). The extracts were evaporated to dryness, reconstituted, and then analyzed by LC-MS/MS. The calibration range was 0.250-250 ng/mL for both analytes.
If the criteria for either the calibration curve or the analytical QCs were not met, the analytical run was rejected. […] No deviations were found during the bioanalytical phase of the study conducted by Origin. Calibration curves were derived from the individual analyte to internal standard peak area ratios using the least squared regression of the ratio versus the nominal concentration of the calibration standard, prepared in duplicate. The regression was then used to back-calculate the concentration of each calibration standard, QC sample and study sample. […] Analyst® Software Version 1.6.3 (Applied Biosystems-MDS Sciex), operated with Windows® (Microsoft), was used for instrument control, data acquisition, and peak integrations. Peak area ratios, standard curve regressions, and sample concentration/accuracy values were calculated with Analyst® Software Version 1.6.3. Other results (e.g., mean statistics) were calculated with Excel® (Microsoft).
There was no apparent sex difference for the second formulation. […] A fourth formulation comprising the composition B listed in Table 54 was also administered in monheys.

[5] = Caco-2, pH 7.4, Mean Papp (10^−6 cm/s) A to B
[6] = human, Caco-2, 2 h, 10 μM, pH 7.4

Efflux Ratio (Caco-2 cells; Caco-2): >0.825
Mean % Solution Recovery A to B (Caco-2 cells; Caco-2): <4.9%
Mean % Solution Recovery B to A (Caco-2 cells; Caco-2): 25.4%
Rank Efflux Transporter Substrate (Caco-2 cells; Caco-2): Poor or non-
Mean Papp (10^−6 cm/s) A to B (Caco-2 cells; Caco-2, pH 7.4): <0.480 10^−6 cm/s
Mean Papp (10^−6 cm/s) B to A (Caco-2 cells; Caco-2, pH 7.4): 0.396 10^−6 cm/s
Compound: CCCCNc1cc(C(=O)N(Cc2ccccc2)Cc2ccccc2)cc(S(N)(=O)=O)c1Oc1ccccc1 [Bumetanide Dibenzylamide unformulated]

Mean % Solution Recovery A to B (Caco-2 cells; human, Caco-2, 2 h, pH 7.4): 95.7%
recovery at 2 h (in vitro): 94.7%
Papp A→B at 2 h (in vitro; [5]): 19.2 ×10⁻⁶ cm/s
Papp A→B at 2 h (in vitro; Caco-2, pH 7.4, Rank Papp): > 2.5 ×10⁻⁶ cm/s
Compound: COCCc1ccc(OCC(O)CNC(C)C)cc1 (stereo not drawn) [metoprolol, reference compound]

Compound: CCCCNc1cc(C(=O)N(CC)CC)cc(S(N)(=O)=O)c1Oc1ccccc1 [Bumetanide Diethylamide]
Mean % Solution Recovery A to B (Caco-2 cells; Caco-2, A to B, second Table 73 (diethylamide run)): 77.4%
Mean Papp (10^−6 cm/s) A to B (Caco-2 cells; Caco-2, A to B, test compound 2.00 μM (digoxin 10.0 μM), 2 hours, HBSS pH 7.40, second Table 73 (diethylamide run)): 1.33 10^−6 cm/s
Efflux Ratio (Caco-2 cells; Caco-2, B to A / A to B, second Table 73 (diethylamide run)): 31.6
Mean % Solution Recovery B to A (Caco-2 cells; Caco-2, B to A, second Table 73 (diethylamide run)): 88.5%
Mean Papp (10^−6 cm/s) B to A (Caco-2 cells; Caco-2, B to A, test compound 2.00 μM (digoxin 10.0 μM), 2 hours, HBSS pH 7.40, second Table 73 (diethylamide run)): 42.0 10^−6 cm/s
Rank Efflux Transporter Substrate (Caco-2 cells; Caco-2 efflux ratio rank, second Table 73 (diethylamide run)): Likely
Rank Papp (Caco-2 cells; Caco-2 permeability rank, second Table 73 (diethylamide run)): Moderate (Moderate permeability: 0.500<Papp<2.50 (×10^−6 cm/s))
logP ([1]; octanol:water partition coefficient): 3.11

blood concentration by 24 hrs [2]: no detectable concentration
Compound: CCCCNc1cc(C(=O)N2CCOCC2)cc(S(N)(=O)=O)c1Oc1ccccc1 [Bumetanide Morpholinoamide]

Mean % Solution Recovery A to B (Caco-2 cells; human, Caco-2, 2 h, pH 7.4): 98.5%
recovery at 2 h (in vitro): 97%
Papp A→B at 2 h (in vitro; [5]): 0.0983 ×10⁻⁶ cm/s
Papp A→B at 2 h (in vitro; Caco-2, pH 7.4, Rank Papp): < 0.5 ×10⁻⁶ cm/s
Compound: CC(C)(C)NCC(O)COc1cccc2c1CC(O)C(O)C2 (stereo not drawn) [nadolol, reference compound]

Efflux Ratio (Caco-2 cells; Caco-2): 43.8
Mean % Solution Recovery A to B (Caco-2 cells; Caco-2): 87.4%
Mean % Solution Recovery B to A (Caco-2 cells; Caco-2): 99.6%
Rank Efflux Transporter Substrate (Caco-2 cells; Caco-2): Likely
Mean Papp (10^−6 cm/s) A to B (Caco-2 cells; Caco-2, pH 7.4): 0.709 10^−6 cm/s
Mean Papp (10^−6 cm/s) B to A (Caco-2 cells; Caco-2, pH 7.4): 31.0 10^−6 cm/s
Compound: CCCCNc1cc(C(=O)N2CCOCC2)cc(S(N)(=O)=O)c1Oc1ccccc1 [Bumetanide morpholinoamide unformulated]

Bumetanide levels [3]: not measureable
logP [1]: ~2.61
plasma concentrations of Bumetanide [4]: no measurable concentrations
Compound: CCCCNc1cc(C(=O)O)cc(S(N)(=O)=O)c1Oc1ccccc1 [Bumetanide, reference compound]

Rank Efflux Transporter Substrate (Caco-2 cells; Caco-2): Likely
Efflux Ratio (Caco-2 cells; [6]): 800
Mean % Solution Recovery B to A (Caco-2 cells; [6]): 103.4%
Mean % Solution Recovery A to B (Caco-2 cells; human, Caco-2, 2 h, pH 7.4): 97.4%
efflux ratio at 2 h, 10 μM (in vitro; Caco-2, pH 7.4, Efflux Ratio): 586
recovery at 2 h (in vitro): 94.7%
recovery at 2 h, 10 μM (in vitro; Caco-2, pH 7.4, Mean % Solution Recovery B to A): 108%
Papp A→B at 2 h (in vitro; [5]): 0.0223 ×10⁻⁶ cm/s
Papp B→A at 2 h, 10 μM (in vitro; Caco-2, pH 7.4, Mean Papp (10^−6 cm/s) B to A): 13.1 ×10⁻⁶ cm/s
Papp A→B at 2 h (in vitro; Caco-2, pH 7.4, Rank Papp): < 0.5 ×10⁻⁶ cm/s
Compound: C[C@H]1O[C@@H](O[C@H]2[C@@H](O)C[C@H](O[C@H]3[C@@H](O)C[C@H](O[C@H]4CC[C@@]5(C)[C@H](CC[C@@H]6[C@@H]5C[C@@H](O)[C@]5(C)[C@@H](C7=CC(=O)OC7)CC[C@]65O)C4)O[C@@H]3C)O[C@@H]2C)C[C@H](O)[C@@H]1O [Digoxin, reference compound]
